Experimental findings from patent US5670526A, “1,3,4-oxadiazoles” (Otsuka Pharmaceutical Co., Ltd., priority 1995, dated 1997) are described below.

For one test, the system named is Neutrophil migration. Put plainly: Immune complex (BSA/anti-BSA) induced neutrophil migration into mouse skin, myeloperoxidase (MPO) assay. It is filed as in vivo, C57BL/6 mouse. The settings on record: Mus musculus, Neutrophil; 12.5 mg of drug/site, i.d., 4 hours. The method, then:
Neutrophil migration and infiltration into tissue spaces and the effect thereon of the compounds of the instant compounds can be tested. For example, immune complexes can be developed at a subcutaneous or intradermal site to draw neutrophils and the effect of the instant compounds on neutrophil migration can be assessed. A protocol is as follows. Mice are injected IV with bovine serum albumin (BSA). Then the mice are injected intradermally with antibody to BSA. For experimental animals, the test substance is administered concurrently intradermally or subcutaneously at the site of antibody deposition. After about four hours, the animal is sacrificed, the skin at the injection site is removed and then treated appropriately, such as assaying for myeloperoxidase, to determine the extent of neutrophil migration to the injection site.
An i.v. injection of 100 μl of BSA at 10 mg/ml in saline was followed by a 25 μl injection of anti-BSA i.d. on the back side of a pre-shaven C57BL/6 mouse. At time 0, along with the BSA and anti-BSA, the test compound or vehicle was administered i.d. at the site of the antibody injection in a volume of 25 μl (for example, 0.5 mg/μl solution). Four hours post injection, the skin was removed and a myeloperoxidase (MPO) assay performed (Mulligan et al., J. Imm. 151(10): 5666-5674, 1993).
Briefly, the skin sample was placed in a 17×100 mm test tube containing 2 ml of ice cold buffer (PBS, pH 7.4). The sample was ground for 30 seconds and placed on ice. The sample was vortexed for 10 seconds and then sonicated for three minutes in iced water. The sample was frozen in dry ice for 30 minutes. The sample then was thawed rapidly in a water bath for 10 minutes. An aliquot of 1.5 ml was removed and placed in a microfuge tube. The sample was spun at high speed in a cold room for 15 minutes. The sample then was titrated across the wells in a microtiter plate with the first well containing a 1:3 dilution of sample, for example, 50 μl of sample and 150 μl of buffer. Substrate and hydrogen peroxide were added to each well. Following a suitable incubation period, sodium azide was added to the wells and the absorbance monitored in a spectrophotometer at 460 nm. […]

Test [1] relates to Concanavalin A (ConA)-induced liver injury. Put plainly: Concanavalin A (ConA)-induced liver injury in mice, serum SGOT. Type of test: in vivo, C57BL/6 mice. Conditions: Mus musculus, ip; 20 mg/kg i.p.; ConA 15 mg/kg i.v., 17 hours; read-out: SGOT (% decrease).
Another test has as its system ELAM. Put plainly: ELISA for cell surface molecules: inhibition of ELAM expression on IL-1β stimulated HUVEC's. It is filed as cell-based. The settings on record: Homo sapiens; for inhibition at 1 µg/mL: @ 1 μg/mL. Here is the method:
(§1) The following were used in an ELISA for cell surface molecules: Costar 96-well TC plates, 2% gelatin, 1% BSA-Dulbecco's PBS w/CaMg^++, IL-1β, primary antibody e.g., 7A9 for ELAM (EP 505749) secondary biotinylated goat anti-mouse IgG/IgM, streptavidin-peroxidase, OPD substrate tablets and 30% hydrogen peroxide.
(§2) To begin, 96-well plates were coated with 2% gelatin (1 hour). The excess gelatin was aspirated from the wells. HUVEC's were seeded at 20,000 cells/well in a 200 μl volume.
(§3) Prior to assay, the test compounds were dissolved in DMSO at a stock concentration of 3 mg/ml. The stock solutions were set at room temperature and observed to see if dissolution was complete. When monolayers reached confluence (24-28 hours after seeding) the test compounds were added to the wells at final concentrations of 10 μg/ml, 3 μg/ml and 1 μg/ml. The plates were incubated for 1 hour at 37° C. Then, IL-1β at a final concentration of 1 μg/ml was added and the plates incubated for 4 hours at 37° C. The supernatant was removed from the plates by flicking into a sink. The wells were washed 3× with 1% BSA-Dulbecco's PBS.
(§4) Primary antibody (7A9 for ELAM or a suitable antibody for VCAM or ICAM) at a concentration of 2.5 μg/ml in a 50 μl volume was added to each well. The plates were incubated at 4° C. for 45 minutes to 1 hour. The wells were washed 3× with 1% BSA Dulbecco's PBS. Secondary antibody (biotinylated goat anti-mouse IgG-IgM, commercially available) at 50 μl/well at a final dilution of 1:1,000 was added to the well and the plates were incubated for 45 minutes to 1 hour at 4° C. The wells were washed 3× with 1% BSA-Dulbecco's PBS.
(§5) Streptavidin-peroxidase at 50 μl/well with a final dilution of 1:3,000 was added to each well and the plates were incubated at 4° C. for 30 minutes. Again the plates were washed 3× with 1% BSA-Dulbecco's PBS.
(§6) Substrate solution (OPD tablets, citric acid buffer and hydrogen peroxide solution) was prepared and added at 100 μl/well. The plates were incubated 15 minutes at room temperature on a plate shaker and the reaction was stopped with 12.5% sulfuric acid. Plates were read for absorbance values at 492 nm.
(§7) The degree of inhibition in expression of ELAM or VCAM by a compound of the instant invention is manifest as a decrease in specific primary antibody binding. In the following table the IC50 values are provided using a representative sampling of compounds of the instant invention.
Background: An ELISA detects its analyte on a solid surface through an enzyme-linked reagent.

The test system of another test is VCAM. Put plainly: ELISA for cell surface molecules: inhibition of VCAM expression on IL-1β stimulated HUVEC's. Type of test: cell-based. Conditions: Homo sapiens; for inhibition at 1 µg/mL: @ 1 μg/mL. The method, then:
as §1, §2, §3, §4, §5, §6, §7

In test [2] the test system is Concanavalin A (ConA)-induced liver injury. Put plainly: Concanavalin A (ConA)-induced liver injury in mice, serum SGOT. It is filed as in vivo, C57BL/6 mice. Conditions: Mus musculus, ip; 50 mg/kg i.p.; ConA 15 mg/kg i.v., 17 hours; read-out: SGOT (% decrease). Here is the method:
The following protocol was used for the Concanavalin A (ConA)-induced liver injury in mice. C57BL/6 mice were used. A solution of ConA (Sigma)in PBS was prepared at a concentration of 1.5 mg/ml. The mice were administered, i.p., with […] of a 10% DMSO solution containing varying amounts (adjusted to give 25 mg/kg to 50 mg/kg of compound) of the representative compounds of interest. Fifteen minutes later, the mice were treated via the tail vein with 15 mg/kg of ConA in PBS along with […] of 10% DMSO solution.
The mice were sacrificed after 17 hours and the blood collected into small conical tubes. The tubes were centrifuged and the serum collected and assayed for serum glutamic oxaloacetic transaminase (SGOT) (Sigma GOT kit). The high level enzyme standard (Sigma) was used to make the standard curve, as 100(undiluted), 50, 25, 12.5 and 0 S-F units/mi. Samples were diluted 1:5, 1:25 and 1:125 by adding 25 μl of serum to 100 μl of H2 O and serially diluting 25 μl into 100 μl two more times. Then 100 μl of the Sigma substrate were added to each tube along with 20 μl of each diluted sample and enzyme standard. The tube was incubated in a 37° C. bath with gentle shaking for 1 hour. To that was added […] of colorizing reagent and the tube was left to stand for 30 minutes. Then 500 μl of 0.8N NaOH solution were added, the tubes were capped and inverted to mix thoroughly. A 150 μl aliquot of each sample and 150 μl of the standard were added to wells of a 96-well plate and color formation was monitored at 490 nm. The amounts of SGOT were calculated using a standard curve, converted to Sigma-Frankel units/ml.

The molecule `[O-][S+](Cc1ccccc1)c1nnc(-c2ccccn2)o1` (stereo not drawn) [Compound 97] returned an inhibition in vivo at 12.5 mg/site with Neutrophil migration of 80%. For the same molecule, the inhibition in vivo at 20 mg/kg in test [1] came out at 45%. The inhibition at 1 µg/mL turned out to be 50% in the test on ELAM and 55% with VCAM.

The molecule `[O-][S+](Cc1ccccc1)c1nnc(-c2cccnc2)o1` (stereo not drawn) [Compound 101] returned an inhibition in vivo at 12.5 mg/site in the test on Neutrophil migration of 50%. Further, in test [2], the inhibition in vivo at 50 mg/kg stood at 68%. The inhibition at 10 µg/mL in the test with ELAM (@ 10 μg/mL) came to 75%; in the test with VCAM (@ 10 μg/mL), 40%.

In the test with Neutrophil migration, `COc1c(C)cnc(C[S+]([O-])c2nnc(-c3ccccc3O)o2)c1C` (stereo not drawn) [Compound 113] had an inhibition in vivo at 12.5 mg/site of 20%. For the same molecule, the inhibition in vivo at 50 mg/kg in test [2] was 80%. Besides, the inhibition at 1 µg/mL was found to be 30% in the test with ELAM and 50% with VCAM.

Usually inhibition stands for the relative decrease from the control value, in per cent.
